# Patent US11866408B2, “N,N-dimethyltryptamine and related psychedelics and uses thereof” (Terran Biosciences Inc., priority 2021, dated 2024)
# Where a name gives a salt, the structure may show the parent alone.
# How the values were obtained:
# [1] = Single oral dose pharmacokinetics study in rats (10 mg/kg PO; plasma levels of prodrug and of metabolite DMT or 5-MeO-DMT by LC-MS/MS); details: for Mean Plasma Concentration (ng/mL) of metabolite DMT: analyte DMT after oral dosing of prodrug 10 mg/Kg; for Mean Plasma Concentrations of metabolite DMT: prodrug 10 mg/Kg oral, male SD rats
# [2] = Single intravenous dose pharmacokinetics study in rats (1 mg/kg IV; plasma levels of prodrug and of DMT or 5-MeO-DMT by LC-MS/MS); details: IV 1 mg/kg, plasma, analyte = dosed compound; for AUC(0-t) / AUC(0-inf) / clearance / MRT / Vd / half-life: male, Sprague-Dawley, rat, iv, 1 mg/kg; for clearance: CL/CL_F (mL/min/kg); for MRT: MRT (h); for Vd: Vdss (L/kg); for half-life: t1/2 (h)
# [3] = oral 10 mg/Kg, analyte = dosed prodrug, mean
# [4] = oral 10 mg/Kg, analyte = dosed prodrug, median
# [5] = male, Sprague-Dawley, rat, plasma, po, 10 mg/kg, AUC0-last (h*ng/mL), oral 10 mg/Kg, analyte = dosed prodrug, mean
# [6] = male, Sprague-Dawley, rat, plasma, po, 10 mg/kg, Cmax (ng/mL), oral 10 mg/Kg, analyte = dosed prodrug, mean
# [7] = PO 10 mg/kg, plasma, analyte = dosed compound
# [8] = male, Sprague-Dawley, rat, plasma, po, 10 mg/kg, C0/Cmax (nM), PO 10 mg/kg, analyte = dosed compound
# [9] = male, Sprague-Dawley, rat, plasma, po, 10 mg/kg, C0/Cmax (ng/mL), PO 10 mg/kg, analyte = dosed compound, mean/median
# [10] = male, Sprague-Dawley, rat, plasma, po, 10 mg/kg, AUC0-t (nM.hr), PO 10 mg/kg, analyte = dosed compound
# [11] = male, Sprague-Dawley, rat, plasma, po, 10 mg/kg, AUC0-t (ng.hr/mL), PO 10 mg/kg, analyte = dosed compound
structure (smiles),measurement,setting,value
"COc1ccc2c(c1)c(CCN(C)C)cn2C(C)=O [5-MeO-DMT AP-1, 1-[3-[2-(dimethylamino)ethyl]-5-methoxy-indol-1-yl]ethanone]",AUC0-last,[1]; [3],180 ng·h/mL
same,Cmax,[1]; [3],69 ng/mL
same,T½,[1]; [3],1.24 h
same,Tmax,[1]; [4],30 min
same,tlast,[1]; [4],7.00 h
"COc1ccc2c(c1)c(CCN(C)C)cn2C(=O)OC(C)C [5-MeO-DMT CP-2, isopropyl 3-[2-(dimethylamino)ethyl]-5-methoxy-indole-1-carboxylate]",AUC(0-t),[1]; [5],6.8 ng·h/mL
same,Cmax,[1]; [6],5.7 ng/mL
same,tlast,[1]; [4],2.50 h
"COc1ccc2c(c1)c(CCN(C)C)cn2C(=O)OC(C)(C)C [5-MeO-DMT CP-3, tert-butyl 3-[2-(dimethylamino)ethyl]-5-methoxy-indole-1-carboxylate]",AUC(0-t),[1]; [5],17.3 ng·h/mL
same,Cmax,[1]; [6],7.51 ng/mL
same,tlast,[1]; [4],4.00 h
"CCCOC(=O)n1cc(CCN(C)C)c2cc(OC)ccc21 [5-MeO-DMT CP-4, propyl 3-[2-(dimethylamino)ethyl]-5-methoxy-indole-1-carboxylate]",AUC(0-t),[1]; [5],6.45 ng·h/mL
same,Cmax,[1]; [6],4.85 ng/mL
same,tlast,[1]; [4],3.00 h
"COc1ccc2c(c1)c(CCN(C)C)cn2C(=O)CCC(=O)O [5-MeO-DMT Non-Lipid Prodrug 5, 4-(3-(2-(dimethylamino)ethyl)-5-methoxy-1H-indol-1-yl)-4-oxobutanoic acid]",AUC(0-t),[1]; [5],85.7 ng·h/mL
same,Cmax,[1]; [6],23 ng/mL
same,tlast,[1]; [4],7.00 h
"COc1ccc2c(c1)c(CCN(C)C)cn2C(=O)CCCC(=O)O [5-MeO-DMT Non-Lipid Prodrug 6, 5-(3-(2-(dimethylamino)ethyl)-5-methoxy-1H-indol-1-yl)-5-oxopentanoic acid]",AUC(0-t),[1]; [5],362 ng·h/mL
same,Cmax,[1]; [6],106 ng/mL
same,tlast,[1]; [4],7.00 h
"COc1ccc2[nH]cc(CCN(C)C)c2c1 [Compound 5-MeO-DMT, 5-methoxy-N,N-dimethyltryptamine, reference compound]",AUC % Back Extrapolation to C0,[2],26.8%
same,AUC % Extrapolation to infinity,[2],0.204%
same,Clast,[2],1.68 ng/mL
same,tlast,[2],5.50 h
same,AUC(0-t),[2]; AUC0-t (nM.hr),4.95 µM·h
same,AUC(0-t),[2]; AUC0-t (ng.hr/mL),1080 ng·h/mL
same,AUC(0-inf),[2]; AUCinf (nM.hr),4.95 µM·h
same,AUC(0-inf),[2]; AUCinf (ng.hr/mL),1080 ng·h/mL
same,clearance,[2],24.6 mL/min/kg
same,MRT,[2],37.4 min
same,Vd,[2],0.818 L/kg
same,half-life,[2],30.6 min
same,Clast,[1]; [7],1.95 ng/mL
same,tlast,[1]; [7],2.00 h
same,Cmax,[1]; [8],13.9 nM
same,Cmax,[1]; [9],3.03 ng/mL
"CCOC(=O)n1cc(CCN(C)C)c2cc(OC)ccc21 [Compound 19, Ethyl 3-[2-(dimethylamino)ethyl]-5-methoxy-indole-1-carboxylate]",AUC % Back Extrapolation to C0,[2],59.7%
same,AUC % Extrapolation to infinity,[2],0.104%
same,Clast,[2],2.95 ng/mL
same,tlast,[2],5.50 h
same,AUC(0-t),[2]; AUC0-t (nM.hr),14.4 µM·h
same,AUC(0-t),[2]; AUC0-t (ng.hr/mL),4170 ng·h/mL
same,Clast,[1]; [7],1.90 ng/mL
same,tlast,[1]; [7],24.0 h
same,AUC(0-t),[1]; [10],0.237 µM·h
same,AUC(0-t),[1]; [11],68.8 ng·h/mL
same,Cmax,[1]; [8],8.15 nM
same,Cmax,[1]; [9],2.37 ng/mL
"CCOC(=O)n1cc(CCN(C)C)c2ccccc21 [Compound 20, Ethyl 3-[2-(dimethylamino)ethyl]indole-1-carboxylate]",AUC % Back Extrapolation to C0,[2],17.5%
same,AUC % Extrapolation to infinity,[2],1.073%
same,Clast,[2],3.26 ng/mL
same,tlast,[2],4.00 h
same,AUC(0-t),[2]; AUC0-t (nM.hr),1.07 µM·h
same,AUC(0-t),[2]; AUC0-t (ng.hr/mL),279 ng·h/mL
same,AUC(0-inf),[2]; AUCinf (nM.hr),1.08 µM·h
same,AUC(0-inf),[2]; AUCinf (ng.hr/mL),282 ng·h/mL
same,clearance,[2],67.9 mL/min/kg
same,MRT,[2],48.6 min
same,Vd,[2],3.53 L/kg
same,half-life,[2],36.8 min
same,Clast,[1]; [7],3.01 ng/mL
same,tlast,[1]; [7],1.00 h
same,AUC(0-t),[1]; [10],0.0184 µM·h
same,AUC(0-t),[1]; [11],4.78 ng·h/mL
same,Cmax,[1]; [8],44.3 nM
same,Cmax,[1]; [9],11.5 ng/mL
"CN(C)CCc1cn(C(=O)N2CCC(N3CCCCC3)CC2)c2ccccc12 [DMT 4-Piperidinopiperidine urea formate, [1,4′-Bipiperidin]-1′-yl(3-(2-(dimethylamino)ethyl)-1H-indol-1-yl)methanone]",Mean Plasma Concentration (ng/mL) of metabolite DMT,[1]; 0.50 h,BLQ (BLQ: Below Lower Limit of Quantification (0.5 ng/mL))
same,Mean Plasma Concentration (ng/mL) of metabolite DMT,[1]; 1.00 h,BLQ (BLQ: Below Lower Limit of Quantification (0.5 ng/mL))
same,Mean Plasma Concentration (ng/mL) of metabolite DMT,[1]; 2.00 h,BLQ (BLQ: Below Lower Limit of Quantification (0.5 ng/mL))
same,Mean Plasma Concentration (ng/mL) of metabolite DMT,[1]; 4.00 h,BLQ (BLQ: Below Lower Limit of Quantification (0.5 ng/mL))
same,Mean Plasma Concentration (ng/mL) of metabolite DMT,[1]; 7.00 h,BLQ (BLQ: Below Lower Limit of Quantification (0.5 ng/mL))
same,Mean Plasma Concentration (ng/mL) of metabolite DMT,[1]; 24.0 h,BLQ (BLQ: Below Lower Limit of Quantification (0.5 ng/mL))
"CC(=O)n1cc(CCN(C)C)c2ccccc21 [DMT AP-1, 1-[3-[2-(dimethylamino)ethyl]indol-1-yl]ethenone]",AUC(0-t),[1]; [5],2.16 ng·h/mL
same,Cmax,[1]; [6],3.53 ng/mL
same,tlast,[1]; [4],1.00 h
CN(C)CCc1cn(C(=O)c2ccccc2)c2ccccc12 [DMT Benzamide],AUC(0-t),[1]; [5],66.5 ng·h/mL
same,Cmax,[1]; [6],17.7 ng/mL
same,tlast,[1]; [4],7.00 h
"CC(C)OC(=O)n1cc(CCN(C)C)c2ccccc21 [DMT CP-2, isopropyl 3-[2-(dimethylamino)ethyl]indole-1-carboxylate]",AUC(0-t),"[1]; male, Sprague-Dawley, rat, plasma, po, 10 mg/kg, AUC0-24 (h*ng/mL), oral 10 mg/Kg, analyte = dosed prodrug, mean",60.9 ng·h/mL
same,AUC(0-t),[1]; [5],39.4 ng·h/mL
same,Cmax,[1]; [6],17.4 ng/mL
same,tlast,[1]; [4],4.00 h
"CN(C)CCc1cn(C(=O)OC(C)(C)C)c2ccccc12 [DMT CP-3, tert-butyl 3-[2-(dimethylamino)ethyl]indole-1-carboxylate]",AUC(0-t),[1]; [5],13.8 ng·h/mL
same,Cmax,[1]; [6],11.1 ng/mL
same,tlast,[1]; [4],4.00 h
"CCCOC(=O)n1cc(CCN(C)C)c2ccccc21 [DMT CP-4, propyl 3-[2-(dimethylamino)ethyl]indole-1-carboxylate]",AUC(0-t),[1]; [5],28.2 ng·h/mL
same,Cmax,[1]; [6],14.3 ng/mL
same,tlast,[1]; [4],4.50 h
"CC(C)COC(=O)n1cc(CCN(C)C)c2ccccc21 [DMT CP-5, isobutyl 3-[2-(dimethylamino)ethyl]indole-1-carboxylate]",AUC(0-t),[1]; [5],8.63 ng·h/mL
same,Cmax,[1]; [6],2.92 ng/mL
same,tlast,[1]; [4],4.00 h
"CN(C)CCc1cn(C(=O)N(C)C)c2ccccc12 [DMT N,N-dimethyl urea formate, 3-[2-(dimethylamino)ethyl]-N,N-dimethyl-indole-1-carboxamide]",Mean Plasma Concentrations of metabolite DMT,[1]; time 0.50 h,BLQ (BLQ: Below Lower Limit of Quantification (0.5 ng/mL))
same,Mean Plasma Concentrations of metabolite DMT,[1]; time 1.00 h,BLQ (BLQ: Below Lower Limit of Quantification (0.5 ng/mL))
same,Mean Plasma Concentrations of metabolite DMT,[1]; time 2.00 h,BLQ (BLQ: Below Lower Limit of Quantification (0.5 ng/mL))
same,Mean Plasma Concentrations of metabolite DMT,[1]; time 4.00 h,BLQ (BLQ: Below Lower Limit of Quantification (0.5 ng/mL))
same,Mean Plasma Concentrations of metabolite DMT,[1]; time 7.00 h,BLQ (BLQ: Below Lower Limit of Quantification (0.5 ng/mL))
same,Mean Plasma Concentrations of metabolite DMT,[1]; time 24.0 h,BLQ (BLQ: Below Lower Limit of Quantification (0.5 ng/mL))
"CN(C)CCc1cn(C(=O)CC(C)(C)C(=O)O)c2ccccc12 [DMT-3,3-dimethylsuccinate hydrochloride, 4-(3-(2-(dimethylamino)ethyl)-1H-indol-1-yl)-2,2-dimethyl-4-oxobutanoic acid HCl salt]",Mean Plasma Concentrations of metabolite DMT,[1]; time 0.50 h,BLQ (BLQ: Below Lower Limit of Quantification (0.5 ng/mL))
same,Mean Plasma Concentrations of metabolite DMT,[1]; time 1.00 h,BLQ (BLQ: Below Lower Limit of Quantification (0.5 ng/mL))
same,Mean Plasma Concentrations of metabolite DMT,[1]; time 2.00 h,BLQ (BLQ: Below Lower Limit of Quantification (0.5 ng/mL))
same,Mean Plasma Concentrations of metabolite DMT,[1]; time 4.00 h,BLQ (BLQ: Below Lower Limit of Quantification (0.5 ng/mL))
same,Mean Plasma Concentrations of metabolite DMT,[1]; time 7.00 h,BLQ (BLQ: Below Lower Limit of Quantification (0.5 ng/mL))
same,Mean Plasma Concentrations of metabolite DMT,[1]; time 24.0 h,BLQ (BLQ: Below Lower Limit of Quantification (0.5 ng/mL))
